The source of these data is ChEMBL document CHEMBL5380830, “Development and Therapeutic Implications of Tyrosine Kinase 2 Inhibitors” (J Med Chem, 2023).

pEC50, pIC50, pKd, pKi: −log10 of the molar value.

Data set [1] has as its target T1, JAK2/TYK2 (Homo sapiens, UniProt O60674+P29597). In words: Inhibition of JAK2/TYK2 signal transduction pathway in human PBMC cells assessed as IL-12 induced p-STAT4 level incubated for 30 mins. In kind it is cell-based.
Data set [2] addresses T1, JAK2/TYK2. Kind of data set: Inhibition of JAK2/TYK2 signal transduction pathway in human PBMC cells assessed as reduction in GM-CSF induced p-STAT5 level incubated for 20 mins. The format is cell-based.
The target of data set [3] is T2, Non-receptor tyrosine-protein kinase TYK2 (Homo sapiens, UniProt P29597). In words: Inhibition of TYK2 JH1 (unknown origin) at 10 uM relative to control.
T2 sequence (P29597 whole entry): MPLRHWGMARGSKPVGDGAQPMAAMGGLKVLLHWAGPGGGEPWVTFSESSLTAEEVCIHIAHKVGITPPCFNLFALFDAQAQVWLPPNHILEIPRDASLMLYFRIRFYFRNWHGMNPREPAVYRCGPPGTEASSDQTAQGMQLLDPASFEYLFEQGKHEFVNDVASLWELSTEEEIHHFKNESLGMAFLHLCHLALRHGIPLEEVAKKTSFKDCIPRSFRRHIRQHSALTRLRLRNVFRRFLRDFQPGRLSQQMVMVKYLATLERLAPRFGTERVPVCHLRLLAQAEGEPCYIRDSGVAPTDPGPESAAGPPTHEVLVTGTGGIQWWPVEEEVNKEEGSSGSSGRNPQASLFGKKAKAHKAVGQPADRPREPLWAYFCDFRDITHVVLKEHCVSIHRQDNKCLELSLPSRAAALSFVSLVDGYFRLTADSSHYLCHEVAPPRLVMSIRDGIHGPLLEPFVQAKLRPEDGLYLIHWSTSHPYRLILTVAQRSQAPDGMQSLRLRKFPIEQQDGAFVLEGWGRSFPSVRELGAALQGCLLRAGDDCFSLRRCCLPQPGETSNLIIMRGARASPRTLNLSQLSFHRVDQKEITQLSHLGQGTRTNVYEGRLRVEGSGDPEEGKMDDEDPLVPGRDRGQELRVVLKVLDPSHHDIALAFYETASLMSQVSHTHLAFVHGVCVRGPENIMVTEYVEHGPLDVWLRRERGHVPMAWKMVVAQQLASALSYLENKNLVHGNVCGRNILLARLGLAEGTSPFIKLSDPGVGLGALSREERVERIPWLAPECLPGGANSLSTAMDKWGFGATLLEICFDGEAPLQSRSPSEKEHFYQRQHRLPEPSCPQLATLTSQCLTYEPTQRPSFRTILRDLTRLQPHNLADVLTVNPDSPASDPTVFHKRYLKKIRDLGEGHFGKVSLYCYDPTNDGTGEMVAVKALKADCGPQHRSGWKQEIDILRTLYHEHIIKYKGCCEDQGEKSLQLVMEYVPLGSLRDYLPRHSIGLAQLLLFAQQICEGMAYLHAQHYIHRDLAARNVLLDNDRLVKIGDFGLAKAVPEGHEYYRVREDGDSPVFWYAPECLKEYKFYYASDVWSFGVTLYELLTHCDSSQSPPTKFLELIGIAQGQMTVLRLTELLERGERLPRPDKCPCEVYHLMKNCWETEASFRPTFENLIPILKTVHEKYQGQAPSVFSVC
In data set [4] the target is T3, Tyrosine-protein kinase JAK2 (Homo sapiens, UniProt O60674). In words: Inhibition of JAK2 JH1 (unknown origin) at 10 uM relative to control.
T3 sequence (O60674 whole entry, the tested form may be a part): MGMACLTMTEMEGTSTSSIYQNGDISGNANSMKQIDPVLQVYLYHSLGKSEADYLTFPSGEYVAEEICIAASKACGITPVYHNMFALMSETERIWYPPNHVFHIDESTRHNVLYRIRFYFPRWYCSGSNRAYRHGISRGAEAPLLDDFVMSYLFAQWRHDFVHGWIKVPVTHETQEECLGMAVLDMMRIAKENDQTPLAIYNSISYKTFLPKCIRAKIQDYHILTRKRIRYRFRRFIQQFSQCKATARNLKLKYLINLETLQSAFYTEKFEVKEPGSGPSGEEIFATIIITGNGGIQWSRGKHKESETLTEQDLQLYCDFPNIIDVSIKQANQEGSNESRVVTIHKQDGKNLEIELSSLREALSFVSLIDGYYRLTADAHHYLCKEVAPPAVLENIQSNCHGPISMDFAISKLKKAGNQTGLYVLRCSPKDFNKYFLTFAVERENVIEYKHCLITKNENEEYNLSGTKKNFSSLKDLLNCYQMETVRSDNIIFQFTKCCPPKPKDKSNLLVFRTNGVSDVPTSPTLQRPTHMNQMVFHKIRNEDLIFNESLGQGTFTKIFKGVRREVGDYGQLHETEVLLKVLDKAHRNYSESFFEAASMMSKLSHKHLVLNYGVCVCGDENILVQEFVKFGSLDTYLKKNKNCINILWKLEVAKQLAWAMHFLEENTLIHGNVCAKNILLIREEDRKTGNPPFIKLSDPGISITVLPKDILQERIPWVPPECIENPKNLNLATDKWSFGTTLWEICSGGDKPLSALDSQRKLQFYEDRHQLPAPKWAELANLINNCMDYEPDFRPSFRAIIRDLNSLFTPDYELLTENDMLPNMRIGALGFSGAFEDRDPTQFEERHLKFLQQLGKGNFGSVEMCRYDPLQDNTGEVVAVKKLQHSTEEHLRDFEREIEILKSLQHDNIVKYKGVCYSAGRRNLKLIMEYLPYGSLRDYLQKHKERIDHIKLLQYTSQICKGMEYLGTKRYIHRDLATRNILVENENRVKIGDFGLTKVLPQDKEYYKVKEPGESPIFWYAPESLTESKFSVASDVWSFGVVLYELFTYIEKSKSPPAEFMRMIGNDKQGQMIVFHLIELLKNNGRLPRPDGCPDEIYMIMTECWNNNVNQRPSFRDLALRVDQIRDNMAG
The target of data set [5] is T2, Non-receptor tyrosine-protein kinase TYK2. In words: Binding affinity to human wild-type partial length TYK2 JH2 (G556 to D888 residues) expressed in mammalian expression system by KINOMEscan assay.
The target of data set [6] is T4, Tyrosine-protein kinase JAK1 (Homo sapiens, UniProt P23458). In words: Binding affinity to JAK1 JH2 (unknown origin).
T4 sequence (P23458 whole entry): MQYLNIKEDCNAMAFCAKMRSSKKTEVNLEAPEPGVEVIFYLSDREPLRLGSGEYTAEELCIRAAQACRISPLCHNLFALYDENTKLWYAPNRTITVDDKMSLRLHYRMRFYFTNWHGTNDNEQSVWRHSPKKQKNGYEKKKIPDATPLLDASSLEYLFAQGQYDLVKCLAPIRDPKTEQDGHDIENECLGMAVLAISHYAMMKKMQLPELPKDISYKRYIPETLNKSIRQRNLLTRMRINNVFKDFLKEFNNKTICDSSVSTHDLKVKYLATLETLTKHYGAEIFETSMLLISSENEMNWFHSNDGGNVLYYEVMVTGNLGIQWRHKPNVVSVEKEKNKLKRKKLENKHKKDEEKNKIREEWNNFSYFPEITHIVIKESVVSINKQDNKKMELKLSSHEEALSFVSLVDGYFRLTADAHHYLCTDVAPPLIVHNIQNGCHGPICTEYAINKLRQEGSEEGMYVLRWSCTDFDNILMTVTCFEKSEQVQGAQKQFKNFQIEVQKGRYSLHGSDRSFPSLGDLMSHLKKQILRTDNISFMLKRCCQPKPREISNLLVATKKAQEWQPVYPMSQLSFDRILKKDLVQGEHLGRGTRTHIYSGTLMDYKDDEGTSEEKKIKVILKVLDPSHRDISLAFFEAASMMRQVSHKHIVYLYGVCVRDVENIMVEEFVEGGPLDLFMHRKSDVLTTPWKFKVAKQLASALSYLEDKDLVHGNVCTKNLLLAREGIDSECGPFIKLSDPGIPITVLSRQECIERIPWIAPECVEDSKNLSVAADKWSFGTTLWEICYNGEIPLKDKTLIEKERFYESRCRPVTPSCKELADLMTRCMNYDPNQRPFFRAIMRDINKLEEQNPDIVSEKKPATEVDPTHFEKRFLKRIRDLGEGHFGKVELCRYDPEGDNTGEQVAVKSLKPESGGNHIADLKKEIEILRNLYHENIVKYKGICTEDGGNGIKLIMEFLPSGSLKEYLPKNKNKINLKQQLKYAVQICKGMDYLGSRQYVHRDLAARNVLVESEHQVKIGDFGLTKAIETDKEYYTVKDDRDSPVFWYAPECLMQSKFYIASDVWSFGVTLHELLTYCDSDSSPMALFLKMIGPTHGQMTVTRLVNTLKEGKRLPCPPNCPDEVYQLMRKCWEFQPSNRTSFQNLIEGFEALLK
The target of data set [7] is T2, Non-receptor tyrosine-protein kinase TYK2. In words: Inhibition of TYK2 JH2 in human KIT225 cells assessed as reduction of IFNalpha induced STAT1 phosphorylation by AlphaLISA assay. The format is cell-based. In general terms: Bead proximity is the source of the signal in Alpha formats.
Data set [8] in a line: Half life in C57BL/6 mouse at 10 mg/kg, po by LC/MS-MS analysis. The settings on record: in vivo. In kind it is ADME, organism-based.
Data set [9] concerns the target T3, Tyrosine-protein kinase JAK2. In words: Inhibition of JAK2 (unknown origin).
Data set [10] addresses T2, Non-receptor tyrosine-protein kinase TYK2. Kind of data set: Binding affinity to TYK2 JH2 (unknown origin).
The target of data set [11] is T5, Tyrosine-protein kinase JAK3 (Homo sapiens, UniProt P52333).
T5 sequence (P52333 whole entry): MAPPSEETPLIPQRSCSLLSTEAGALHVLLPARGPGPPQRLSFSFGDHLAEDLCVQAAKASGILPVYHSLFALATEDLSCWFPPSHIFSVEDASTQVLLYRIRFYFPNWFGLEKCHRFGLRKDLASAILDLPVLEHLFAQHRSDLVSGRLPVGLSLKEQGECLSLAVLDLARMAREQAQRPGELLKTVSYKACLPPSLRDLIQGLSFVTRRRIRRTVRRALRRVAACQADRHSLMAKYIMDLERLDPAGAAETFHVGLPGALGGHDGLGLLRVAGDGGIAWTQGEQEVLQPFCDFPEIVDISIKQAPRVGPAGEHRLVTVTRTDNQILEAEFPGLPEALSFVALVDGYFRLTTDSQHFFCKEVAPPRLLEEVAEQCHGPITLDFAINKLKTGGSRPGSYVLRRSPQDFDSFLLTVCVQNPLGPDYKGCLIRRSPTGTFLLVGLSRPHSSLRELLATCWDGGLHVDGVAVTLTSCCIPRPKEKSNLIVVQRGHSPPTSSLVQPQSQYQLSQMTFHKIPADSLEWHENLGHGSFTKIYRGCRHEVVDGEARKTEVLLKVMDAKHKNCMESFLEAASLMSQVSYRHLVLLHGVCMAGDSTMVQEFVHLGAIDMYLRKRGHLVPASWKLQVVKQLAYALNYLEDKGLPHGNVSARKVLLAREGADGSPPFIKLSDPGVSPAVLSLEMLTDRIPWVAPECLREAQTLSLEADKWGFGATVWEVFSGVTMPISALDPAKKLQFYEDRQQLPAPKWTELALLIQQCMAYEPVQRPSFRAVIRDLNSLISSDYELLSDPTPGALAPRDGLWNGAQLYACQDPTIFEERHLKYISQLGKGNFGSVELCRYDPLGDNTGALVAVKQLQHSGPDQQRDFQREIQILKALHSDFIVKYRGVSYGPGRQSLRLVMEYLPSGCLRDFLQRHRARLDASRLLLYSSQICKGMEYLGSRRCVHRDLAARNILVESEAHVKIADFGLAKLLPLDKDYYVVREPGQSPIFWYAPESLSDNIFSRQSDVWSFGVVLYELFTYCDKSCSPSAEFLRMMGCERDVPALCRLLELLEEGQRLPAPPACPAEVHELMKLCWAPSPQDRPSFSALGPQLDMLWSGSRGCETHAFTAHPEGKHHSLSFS
Kind of data set: Inhibition of JAK3 (unknown origin).

In data set [12] the target is T2, Non-receptor tyrosine-protein kinase TYK2. Kind of data set: Inhibition of TYK2 signal transduction pathway in human PBMC cells assessed as IFNalpha induced p-STAT5 level. The format is cell-based.
For data set [13] the target is unchanged. Kind of data set: Inhibition of TYK2 JH1 (unknown origin).
Data set [14] can be described thus: Oral bioavailability in C57BL/6 mouse at 10 mg/kg by LC/MS-MS analysis. The settings on record: in vivo. In kind it is ADME, organism-based.
In data set [15] the target is T4, Tyrosine-protein kinase JAK1. Kind of data set: Inhibition of JAK1 (unknown origin).
The nature of data set [16]: Metabolic stability in human liver microsomes assessed as compound remaining after 60 mins. The format is ADME, Microsome. To be noted: read-out: Stability. Background: Microsomes from liver hold many membrane-bound enzymes, among them those of drug oxidation.
Data set [17] can be described thus: Half life in ICR mouse at 30 mg/kg, IG by LC/MS/MS analysis. In kind it is ADME, organism-based. The settings on record: in vivo, po.
Data set [18] in a line: Cmax in ICR mouse at 30 mg/kg, IG by LC/MS/MS analysis. Further details: dose 30 mg/kg, route ig. The settings on record: in vivo, po. In kind it is ADME, organism-based.
For data set [19], the target named is T1, JAK2/TYK2. In words: Inhibition of JAK2/TYK2 in HEK-Blue IL-23 cells assessed as reduction in SEAP reporter gene expression incubated for 21 hrs by Quanti-blue assay. In kind it is cell-based.
Data set [20] deals with T3, Tyrosine-protein kinase JAK2. Kind of data set: Inhibition of JAK2 in human TF-1 cells assessed as reduction of STAT5 phosphorylation by ELISA assay. In kind it is cell-based. (In general: In an ELISA, binding on a coated surface is turned into a signal by an enzyme label.)
Data set [21] concerns the target JAK1/TYK2 (Homo sapiens, UniProt P23458+P29597). Kind of data set: Inhibition of JAK2/TYK2 in HEK293T cells co-expressing luciferase gene under control of ISRE assessed as reduction in IFNalpha expression incubated for 6 hrs by one-glo reagent based luciferase reporter gene assay. The format is cell-based.
In data set [22] the target is T4, Tyrosine-protein kinase JAK1. Kind of data set: Inhibition of JAK1 (unknown origin) using ULight - JAK (Tyr1023) substrate incubated for 60 mins in presence of ATP by envision plate reader based analysis.
Data set [23] concerns the target T5, Tyrosine-protein kinase JAK3. Kind of data set: Inhibition of JAK3 (unknown origin) using ULight - JAK (Tyr1023) substrate incubated for 60 mins in presence of ATP by envision plate reader based analysis.
For data set [24], the target named is T2, Non-receptor tyrosine-protein kinase TYK2. Kind of data set: Inhibition of TYK2 JH2 (unknown origin).
Data set [25] can be described thus: AUC in C57BL/6 mouse at 10 mg/kg, po by LC/MS-MS analysis. On the set-up: dose 10 mg/kg, route po. The format is ADME, organism-based. The settings on record: in vivo.
The nature of data set [26]: Cmax in C57BL/6 mouse at 10 mg/kg, po by LC/MS-MS analysis. Further details: dose 10 mg/kg, route po. In kind it is ADME, organism-based. To be noted: in vivo.
The target in data set [27] is T1, JAK2/TYK2. In words: Inhibition of JAK2/TYK2 signal transduction pathway in human PBMC cells assessed as IL-12 induced p-STAT4 level by AlphaLISA assay. In kind it is cell-based.
Data set [28] has as its target T1, JAK2/TYK2. Kind of data set: Inhibition of JAK2/TYK2 signal transduction pathway in human PBMC cells assessed as IL-23 induced p-STAT4 level by AlphaLISA assay. In kind it is cell-based.
For data set [29], the target named is T2, Non-receptor tyrosine-protein kinase TYK2. In words: Binding affinity to His-tagged human recombinant TYK2 JH2 (556 to 871 residues) incubated for 10 hrs by microplate reader based analysis.

T1 sequence (O60674 whole entry): as the sequence (O60674 whole entry, the tested form may be a part) above
T1 sequence (P29597 whole entry): as the sequence (P29597 whole entry) above
Sequence of JAK1/TYK2 (P23458 whole entry): as the sequence (P23458 whole entry) above
Sequence of JAK1/TYK2 (P29597 whole entry): as the sequence (P29597 whole entry) above

Take `CNc1cc(Nc2cccnc2OC)nc2c(C(=O)NCC3(CO)CC3)cnn12`: the pIC50 in [1] and in data set [2] was above 6.30 in each case. Also, the inhibition in data set [3] and in data set [4] was below 50% in each case. Further, the pKd (in general, −log10 of the Kd, conventionally taken in molar units) was above 9.70 in data set [5] and 5.30 in data set [6].

For the molecule `CNC(=O)c1nnc(NC(=O)N2CCC2)cc1Nc1cccc(-c2ncn(C)n2)c1OC`, the negative-log IC50 (pIC50) (usually the negative decadic logarithm of the IC50, by convention in mol/L) in data set [7] was 7.27. The pKd in data set [5] was 10.55.

As for `CNC(=O)c1cnc2cc1Nc1cc(cc(-c3ccn(C)n3)c1OC)CCOCc1nc(ccc1C)N2`, the half-life (in general, the time needed for the level to fall by half in the phase considered) in data set [8] is 2.26 h. The pIC50 is below 5.00 in data set [9]; below 5.00 in [11]; at least 7.30 in [12]; below 5.00 in data set [13]; below 5.00 in [15]. Besides, the pKd in data set [10] is above 9.00. Moreover, the bioavailability in data set [14] turned out to be 148%.

Take `[2H]C([2H])([2H])NC(=O)c1nnc(NC(=O)C2CC2)cc1Nc1cccc(-c2ncc(-c3cccnc3C(F)(F)F)cn2)c1OC`: the remaining at 1 h in data set [16] amounted to 100%. This molecule also had a half-life in data set [17] of 6.26 h. For the same molecule, the Cmax (usually the peak of the concentration-time curve) in [18] is 12500 ng/mL.

As for `[2H]C([2H])([2H])Nc1cc(Nc2cc(Cl)cn(-c3ccccn3)c2=O)nn2c(C(=O)N[C@@H]3C[C@@H]3F)cnc12`, the pEC50 (commonly the negative decadic logarithm of the EC50, by convention in mol/L) in data set [19] was above 9.00; in data set [20] it was below 5.00; in data set [21], above 8.00.

With `Cn1cc(-c2cn3ncnc3c(-c3ccn([C@]4(CC#N)C[C@@H](C#N)C4)c3)n2)cn1`, the pIC50 in [22] and in [23] was below 5.30 throughout.

As to `CO[C@@]1(c2cc(C)cc(-n3cc(C4CCN(C)CC4)c4cnc(NC(N)=O)cc43)n2)CCOC1`, the pIC50 in [9] was below 5.00; in data set [24] it was 8.68; in data set [11] it was below 5.00; in [13], below 5.00; in [15], below 5.00. Besides, the AUC (usually the area under the concentration-time curve, a measure of exposure) in [25] worked out at 16600 ng·h/mL. In [26], this molecule yielded a Cmax of 2740 ng/mL.

As for `CO[C@@]1(c2cc(C)cc(-c3cc(C)n4cnc(NC(N)=O)cc34)n2)CCOC1`, the figures for the pIC50 in data set [27] and in data set [28] were 8.10 and 8.70, respectively. Further, the pKi (commonly the negative decadic logarithm of the Ki, by convention in mol/L) in data set [29] was 8.70.

For `[2H]C([2H])([2H])NC(=O)c1nnc2cc1Nc1cc(cc(-c3ccn(C)n3)c1OC)CCOCc1cccc(n1)N2`, the half-life in data set [8] was 3.01 h. Further, the pIC50 in data set [9] was below 5.00; in data set [11], below 5.00; in data set [12], at least 7.30; in [13], below 5.00; in data set [15], below 5.00. This molecule had a pKd in [10] above 9.00. Also, the bioavailability in data set [14] was 147%.
